Assays:
[1] = test system: P. aeruginosa resistant strains; assay: Sensitivity test against clinical isolates, P. aeruginosa resistant strains; type: cell-based; details: 54 resistant strains
Method: It is noted here that the 54 strains have been chosen because there have been the strains in duplicate with the agents. ______________________________________ Ceftazidime (CAZ) (25 to 100 μg/ml) 21 strains Cefsulodine (CFS) (25 to >100 μg/ml) 23 strains Piperacilin (PIPC) (25 to >100 μg/ml) 15 strains Gentamycin (GM) (25 to >100 μg/ml) 21 strains Amikacin (AMK) (25 to >100 μg/ml) 26 strains Ofloxacin (OFLX) (25 to >100 μg/ml) 4 strains ______________________________________
A minimum inhibitory concentration (MIC) was determined in substantially the same manner as the test procedures II above using the 54 strains of P. aeruginosa having an anti-Pseudomonas resistance.

[2] = test system: C. freundii resistant strains; assay: Sensitivity test against clinical isolates, C. freundii resistant strains; type: cell-based; details: CFIX/CTX resistant strains
Method: Cefixime (CFIX) (50 to >100 μg/ml)
Cefotaxime (CTX) (50 to >100 μg/ml)
The tests were carried out in the same manner as described above Test 1.

[3] = design: species or system male mice of CrjCD(SD) type; details: mouse, in vivo, sc, 500 mg/kg
Method: Toxicological studies have been carried out using a group of 10 male mice of CrjCD(SD) type weighing from 20 to 23 grams. A solution containing the carbapenem compound (15) of the present invention obtained by Example 6 was administered subcutaneously to the mice and subjected to observations for one week.

[4] = over a period of ten days

| Compound | test microorganisms whose growth is inhibited ([1]; concentration of 12.5 μg/ml) | test microorganisms whose growth is inhibited ([1]; concentration of […]) | test microorganisms whose growth is inhibited ([2]; concentration of 0.78 μg/ml) | test microorganisms whose growth is inhibited ([2]; concentration of 1.56 μg/ml) | survival and abnormal observations [3] | loss of potency on storage [4] |
| --- | --- | --- | --- | --- | --- | --- |
| C[C@@H](O)[C@H]1C(=O)N2C(C(=O)[O-])=C(SC3Cn4cnc[n+]4C3)[C@H](C)[C@H]12 (stereo partly drawn) [Compound 15, 6-[(R)-1-hydroxyethy]-1-methyl-2-(5H-pyrazolo[1,2-a]triazolinium-6-yl) thio-carbapenem-3-carboxylic acid] | all the test microorganisms | approximately 98% | approximately 98% | all the test microorganisms | alive without any abnormal observations | – |
| C[C@@H](O)[C@H]1C(=O)N2C(C(=O)[O-])=C(SC3Cn4cnc[n+]4C3)[C@H](C)[C@H]12 (stereo partly drawn) [crystalline form] | – | – | – | – | – | no appreciable loss of potency |

Source: US4990613A, “(1R,5S,6S)-2-[(6,7-dih ydro-5H-pyrazolo[1,2-a][1,2,4]triazolium-6-yl)]thio-6-[R-1-hydroxyethyl]- 1-methyl-carbapenem-3-carboxylate and intermediate therefor” (Lederle (Japan), Ltd., priority 1987, dated 1991)
